# Several values for one entry are separate records, joined by “and”; a condition that tells them apart may be missing. Identical values can stand only once. Like-named read-outs stand apart in the source and are kept apart here.
# Test: Pharmacokinetics in Sprague Dawley rats (plasma and brain concentrations, PK parameters)
# Type: in vivo
# Conditions: for Concentration Rat 4 / Concentration Rat 5 / Concentration Rat 6: po 10 mg/kg
# Description: Pharmacokinetics for I-127, I-172 and I-210 were determined in Sprague Dawley rats or CD-1 mice by dosing intravenous (IV), subcutaneous (SC) or per oral (PO) using facility SOPs and sampling plasma at required time points. Species, formulation, route of administration and time points samples are listed below for each compound.
# Compounds were extracted from plasma, injected on reverse phase HPLC, eluted with a gradient from 5% to 95% acetonitrile in water and quantified by mass spectrometry with internal standard. Data are expressed in ng compound per mL of plasma.
# [1] = Rat (Sprague Dawley) po 10 mg/kg, Mean
# [2] = Rat (Sprague Dawley) po 10 mg/kg, individual Rat 4-6, 10 mg/kg
# [3] = Sprague Dawley rat, iv 3 mg/kg, Rat 1
# [4] = Sprague Dawley rat, iv 3 mg/kg, Rat 2
# [5] = Sprague Dawley rat, iv 3 mg/kg, Rat 3
# [6] = Sprague Dawley rat, iv 3 mg/kg, mean of 3 rats
# [7] = Sprague Dawley rat, plasma, 0 h
# [8] = Sprague Dawley rat, plasma, 24 h
smiles,measurement,setting,value
"O=C1CCC(N2C(=O)c3cccc(NCCOCCOCCNCc4ccc(-n5cc(NC(=O)c6coc(-c7ccnc(NCC8CC8)c7)n6)c(C(F)F)n5)cc4)c3C2=O)C(=O)N1 (stereo not drawn) [I-210, 2-[2-(Cyclopropylmethylamino)-4-pyridyl]-N-[3-(difluoromethyl)-1-[4-[[2-[2-[2-[[2-(2,6-dioxo-3-piperidyl)-1,3-dioxoisoindolin-4-yl]amino]ethoxy]ethoxy]ethylamino]methyl]phenyl]pyrazol-4-yl]oxazole-4-carboxamide]",brain Detected Conc.,"Rat (Sprague Dawley) iv 3 mg/kg (IVB), brain homogenate 1:2 in PBS, 0.083 h, Group 1, Group 2, 3 mg/kg",11.8 ng/mL
same,brain Detected Conc.,"Rat (Sprague Dawley) iv 3 mg/kg (IVB), brain homogenate 1:2 in PBS, 0.25 h, Group 1, Group 2, 3 mg/kg",12.9 ng/mL
same,brain Detected Conc.,"Rat (Sprague Dawley) iv 3 mg/kg (IVB), brain homogenate 1:2 in PBS, 1 h, Group 1, Group 2, 3 mg/kg",17.5 ng/mL
same,brain Detected Conc.,"Rat (Sprague Dawley) iv 3 mg/kg (IVB), brain homogenate 1:2 in PBS, 4 h, Group 1, Group 2, 3 mg/kg",12.4 ng/mL
same,brain Actual Conc.,"Rat (Sprague Dawley) iv 3 mg/kg (IVB), brain, 0.083 h, Group 1, Group 2, detected value multiplied by 3, 3 mg/kg",35.4 ng/g
same,brain Actual Conc.,"Rat (Sprague Dawley) iv 3 mg/kg (IVB), brain, 0.25 h, Group 1, Group 2, detected value multiplied by 3, 3 mg/kg",38.7 ng/g
same,brain Actual Conc.,"Rat (Sprague Dawley) iv 3 mg/kg (IVB), brain, 1 h, Group 1, Group 2, detected value multiplied by 3, 3 mg/kg",52.5 ng/g
same,brain Actual Conc.,"Rat (Sprague Dawley) iv 3 mg/kg (IVB), brain, 4 h, Group 1, Group 2, detected value multiplied by 3, 3 mg/kg",37.2 ng/g
same,AUC_%Extrap_obs,[1],42.3%
same,AUClast/D,[1],1.52 kg·ng·h/mL/mg
same,F,[1],0.385%
same,AUC_%Extrap_obs,[2],33.5% and 48.7% and 44.8%
same,AUClast,[2],17.7 ng·h/mL and 21.1 ng·h/mL and 6.66 ng·h/mL
same,Cmax,[2],3.50 ng/mL and 4.02 ng/mL and 1.20 ng/mL
same,F,[2],0.450% and 0.536% and 0.169%
same,MRTInf_obs,[2],10.2 h and 9.35 h
same,T1/2,[2],5.65 h and 5.28 h
same,AUC_%Extrap_obs Rat 1,[3],0.140%
same,AUClast/D Rat 1,[3],414 kg·ng·h/mL/mg
same,Cl_obs Rat 1,[3],40.2 mL/min/kg
same,Vss_obs Rat 1,[3],7.85 L/kg
same,AUC_%Extrap_obs Rat 2,[4],0.183%
same,AUClast/D Rat 2,[4],403 kg·ng·h/mL/mg
same,Cl_obs Rat 2,[4],41.2 mL/min/kg
same,Vss_obs Rat 2,[4],7.79 L/kg
same,AUC_%Extrap_obs Rat 3,[5],0.185%
same,AUClast/D Rat 3,[5],364 kg·ng·h/mL/mg
same,Cl_obs Rat 3,[5],45.7 mL/min/kg
same,Vss_obs Rat 3,[5],8.00 L/kg
same,AUC_%Extrap_obs Mean,[6],0.169%
same,AUClast/D Mean,[6],394 kg·ng·h/mL/mg
same,Cl obs Mean,[6],42 mL/min/kg
same,Vss_obs Mean,[6],7.88 L/kg
same,Concentration Rat 1,"Sprague Dawley rat, iv 3 mg/kg, plasma, 0 h, Rat 1",BLOQ
same,Concentration Rat 2,"Sprague Dawley rat, iv 3 mg/kg, plasma, 0 h, Rat 2",BLOQ
same,Concentration Rat 3,"Sprague Dawley rat, iv 3 mg/kg, plasma, 0 h, Rat 3",BLOQ
same,Concentration Rat 4,[7],BLOQ
same,Concentration Rat 5,[7],BLOQ
same,Concentration Rat 6,[7],BLOQ
same,Concentration Rat 4,[8],BLOQ
same,Concentration Rat 5,[8],BLOQ
same,Concentration Rat 6,[8],BLOQ
same,concentration at 0.083 h,"Sprague Dawley, rat, brain homogenate, iv, 3 mg/kg, Rat (Sprague Dawley) iv 3 mg/kg (IVB), brain homogenate 1:2 in PBS, 0.083 h, Group 1, Group 2, read-out: brain Detected Conc.",17.2 ng/mL
same,concentration at 0.25 h,"Sprague Dawley, rat, brain homogenate, iv, 3 mg/kg, Rat (Sprague Dawley) iv 3 mg/kg (IVB), brain homogenate 1:2 in PBS, 0.25 h, Group 1, Group 2, read-out: brain Detected Conc.",13.2 ng/mL
same,concentration at 1 h,"Sprague Dawley, rat, brain homogenate, iv, 3 mg/kg, Rat (Sprague Dawley) iv 3 mg/kg (IVB), brain homogenate 1:2 in PBS, 1 h, Group 1, Group 2, read-out: brain Detected Conc.",13.3 ng/mL
same,concentration at 4 h,"Sprague Dawley, rat, brain homogenate, iv, 3 mg/kg, Rat (Sprague Dawley) iv 3 mg/kg (IVB), brain homogenate 1:2 in PBS, 4 h, Group 1, Group 2, read-out: brain Detected Conc.",14.2 ng/mL
same,concentration at 0.083 h,"Sprague Dawley, rat, brain, iv, 3 mg/kg, Rat (Sprague Dawley) iv 3 mg/kg (IVB), brain, 0.083 h, Group 1, Group 2, detected value multiplied by 3, read-out: brain Actual Conc.",51.6 ng/g
same,concentration at 0.083 h,"Sprague Dawley, rat, brain, iv, 3 mg/kg, Rat (Sprague Dawley) iv 3 mg/kg (IVB), brain, 0.083 h, Mean, read-out: brain Actual Conc.",43.5 ng/g
same,concentration at 0.25 h,"Sprague Dawley, rat, brain, iv, 3 mg/kg, Rat (Sprague Dawley) iv 3 mg/kg (IVB), brain, 0.25 h, Group 1, Group 2, detected value multiplied by 3, read-out: brain Actual Conc.",39.6 ng/g
same,concentration at 0.25 h,"Sprague Dawley, rat, brain, iv, 3 mg/kg, Rat (Sprague Dawley) iv 3 mg/kg (IVB), brain, 0.25 h, Mean, read-out: brain Actual Conc.",39.2 ng/g
same,concentration at 1 h,"Sprague Dawley, rat, brain, iv, 3 mg/kg, Rat (Sprague Dawley) iv 3 mg/kg (IVB), brain, 1 h, Group 1, Group 2, detected value multiplied by 3, read-out: brain Actual Conc.",39.9 ng/g
same,concentration at 1 h,"Sprague Dawley, rat, brain, iv, 3 mg/kg, Rat (Sprague Dawley) iv 3 mg/kg (IVB), brain, 1 h, Mean, read-out: brain Actual Conc.",46.2 ng/g
same,AUC(0-inf),"Sprague Dawley, rat, plasma, iv, 3 mg/kg, Sprague Dawley rat, iv 3 mg/kg, Rat 1, read-out: AUCInf Rat 1",1240 ng·h/mL
same,AUC(0-t),"Sprague Dawley, rat, plasma, iv, 3 mg/kg, Sprague Dawley rat, iv 3 mg/kg, Rat 1, read-out: AUClast Rat 1",1240 ng·h/mL
same,C0,"Sprague Dawley, rat, plasma, iv, 3 mg/kg, Sprague Dawley rat, iv 3 mg/kg, Rat 1, read-out: C0 Rat 1",873 ng/mL
same,half-life,"Sprague Dawley, rat, plasma, iv, 3 mg/kg, Sprague Dawley rat, iv 3 mg/kg, Rat 1, read-out: T1/2 Rat 1 (converted)",2.66 h
same,AUC(0-inf),"Sprague Dawley, rat, plasma, iv, 3 mg/kg, Sprague Dawley rat, iv 3 mg/kg, Rat 2, read-out: AUCInf Rat 2",1210 ng·h/mL
same,AUC(0-t),"Sprague Dawley, rat, plasma, iv, 3 mg/kg, Sprague Dawley rat, iv 3 mg/kg, Rat 2, read-out: AUClast Rat 2",1210 ng·h/mL
same,C0,"Sprague Dawley, rat, plasma, iv, 3 mg/kg, Sprague Dawley rat, iv 3 mg/kg, Rat 2, read-out: C0 Rat 2",814 ng/mL
same,half-life,"Sprague Dawley, rat, plasma, iv, 3 mg/kg, Sprague Dawley rat, iv 3 mg/kg, Rat 2, read-out: T1/2 Rat 2 (converted)",2.83 h
same,AUC(0-inf),"Sprague Dawley, rat, plasma, iv, 3 mg/kg, Sprague Dawley rat, iv 3 mg/kg, Rat 3, read-out: AUCInf Rat 3",1090 ng·h/mL
same,AUC(0-t),"Sprague Dawley, rat, plasma, iv, 3 mg/kg, Sprague Dawley rat, iv 3 mg/kg, Rat 3, read-out: AUClast Rat 3",1090 ng·h/mL
same,C0,"Sprague Dawley, rat, plasma, iv, 3 mg/kg, Sprague Dawley rat, iv 3 mg/kg, Rat 3, read-out: C0 Rat 3",855 ng/mL
same,half-life,"Sprague Dawley, rat, plasma, iv, 3 mg/kg, Sprague Dawley rat, iv 3 mg/kg, Rat 3, read-out: T1/2 Rat 3 (converted)",2.88 h
same,AUC(0-inf),"Sprague Dawley, rat, plasma, iv, 3 mg/kg, Sprague Dawley rat, iv 3 mg/kg, mean of 3 rats, read-out: AUCInf Mean",1180 ng·h/mL
same,AUC(0-t),"Sprague Dawley, rat, plasma, iv, 3 mg/kg, Sprague Dawley rat, iv 3 mg/kg, mean of 3 rats, read-out: AUClast Mean",1180 ng·h/mL
same,C0,"Sprague Dawley, rat, plasma, iv, 3 mg/kg, Sprague Dawley rat, iv 3 mg/kg, mean of 3 rats, read-out: C0 Mean",848 ng/mL
same,half-life,"Sprague Dawley, rat, plasma, iv, 3 mg/kg, Sprague Dawley rat, iv 3 mg/kg, mean of 3 rats, read-out: T1/2 Mean (converted)",2.79 h
same,AUC(0-inf),"Sprague Dawley, rat, plasma, po, 10 mg/kg, Rat (Sprague Dawley) po 10 mg/kg, Mean, read-out: AUCInf",26.6 ng·h/mL
